No end group written: not given here.
Assays:
[1] = test system: MRCS cell line; test: in vitro; format: cell-based; details: concentration indicating 50% survival, 24 h, MTS; read-out: LC50 (the source's name)
Description: In order to determine whether the peptoids were cytotoxic against human cell lines, […] cell line (Korean Cell Line Bank) which is a human lung cell line was cultured in a DMEM (Dulbecco's modified Eagle's medium) culture solution containing 10% (v/v) fetal bovine serum (FBS) at 5% CO2 and a temperature of 37° C. 100 μL of DMEM medium was dispensed into each well of a 96-well microtiter plate so that the number of cells was 1.3×10^4, and then incubated overnight at a temperature of 37° C. in a 5% CO2 incubator. In this case, a DMEM medium was used as a negative control. Thereafter, the peptoid which is 2-fold serially diluted using sterile water was added to each well, and then incubated for 24 hours.
After incubation, 20 μL of an MTS solution [3-(4,5-dimethylthiazol-2-yl)-5-(3-carboxymethoxyphenyl)-2-(4-sulfophenyl)-2H-tetrazolium, inner salt; MTS] was added thereto and incubated at a temperature of 37° C. for 4 hours. Thereafter, % survival was calculated by measuring absorbance at a wavelength of 490 nm using an ELISA reader. The % survival was calculated as a percentage obtained by dividing the absorbance value for a well-treated with the peptoid by the absorbance value for a well containing control cells which had not been treated with the peptoid.

[2] = test system: B. subtilis; format: cell-based; details: 18 h
Description: In order to measure antimicrobial activity of the peptoids, Gram-positive B. subtilis or Gram-negative E. coli strain DH5α was treated with Peptoid NOS. 1, 18 to 23, and the peptide Pexiganan, and minimum inhibitory concentrations were measured. Peptoid NOS. 1 and 2, and the peptide Pexiganan are already known antimicrobial peptoids and peptides, and were used for the purpose of making a comparison with novel peptoids in terms of antimicrobial activity.
Specifically, B. subtilis or E. coli DHS a was inoculated into LB liquid medium, and cultured at a temperature of 37° C. for 18 hours. Thereafter, the bacteria were diluted with LB medium so that each bacterial number was 2×10^5 colony-forming units (CFU) per 1 mL, and dispensed into 96-well microtiter plates at 100 μL each. The peptoid, which is 2-fold serially diluted using sterile water, was added to each well at 100 μL each. The plates were incubated at a temperature of 37° C. for 18 hours.
Thereafter, absorbance was measured at a wavelength of 600 nm using a microplate reader (Bio-Rad). The lowest peptoid concentration that completely suppresses growth of microorganisms was measured by a minimum inhibitory concentration (MIC), and the measurement results are shown in Table 12 below. Each of the minimum inhibitory concentration values was calculated as an average value of numerical values obtained through three independent experiments.

[3] = test system: red blood cells; test: Hemolytic activity on red blood cells; format: cell-based, mouse
How it was run: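 Washed mouse red blood cells (10% v/v in PBS, pH 7.4) incubated with peptoids for 1 h at 37 °C; released haemoglobin read at 540 nm. % hemolysis normalised to 0.1% Triton X-100 (100%) and PBS blank; HD10, HD50 derived, Hmax taken at 200 μM top concentration.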

[4] = Metabolic stability in human liver S9 fraction, HPLC; format: in vitro ADME; details: human, s9, pH 7.4
Description: In order to identify metabolic stability of the peptoids synthesized in Preparation Example 1, such peptoids were subjected to enzymatic reaction using S9 fraction which is a mixture of human liver tissue-extracted metabolic enzymes. Thereafter, for the reaction products, metabolites were quantitated using HPLC.
Specifically, Peptoid NOS. 1 and 4, and Pexiganan as a peptide control (40 μL each, 100 μM) were treated with […], 3.3 mM MgCl2, and 1.3 mM NADPH buffer (306 μL, pH=7.4), to prepare respective samples. The respective samples were treated with S9 fraction (2 μL, 0.1 mg/mL) and then incubated at a temperature of 37° C. When 0, 1, 4, and 24 hours had elapsed after treatment with the S9 fraction, 40 μL of each sample was taken out, and acetonitrile containing the same amount of 0.1% trifluoroacetic acid was used to stop activity of enzymes contained in the S9 fraction. Thereafter, proteins precipitated with acetonitrile were centrifuged at a condition of 1,000×g for 10 minutes at a temperature of 4° C. Then, supernatant was analyzed by HPLC to identify an amount of the remaining peptoid which had not been degraded by the enzymes in the S9 fraction.

GIGKFLKKAKKFGKAFVKILKK-NH2 [Pexiganan, reference compound]
CC50 [1]: 21.2 µM | MIC B. subtilis [2]: 0.4 µM | HD10 [3]: 113.4 | HD50 [3]: > 200 | remaining at 24 h, 11.5 μM [4]: < 1%

Reference: patent US10815275B2, “Antimicrobial peptoids with improved selectivity and use thereof” (priority 2018, dated 2020)
